Reference: patent publication US20060052451A1, “Method” (priority 2002, published 2006)

Columns and labels:
[1] = target: T1, PPAR alpha (Rattus norvegicus, UniProt P37230); assay: PPAR alpha transactivation assay in COS-1 cells; format: cell-based; details: at 10 μM, mean±SD n=3
T1 construct: 25 ng of vector DNA carrying PPAR alpha, delta or gamma; expressed in transfected cells; host or cells: COS-1 (African green monkey kidney cells)
T1 sequence (P37230 1-468): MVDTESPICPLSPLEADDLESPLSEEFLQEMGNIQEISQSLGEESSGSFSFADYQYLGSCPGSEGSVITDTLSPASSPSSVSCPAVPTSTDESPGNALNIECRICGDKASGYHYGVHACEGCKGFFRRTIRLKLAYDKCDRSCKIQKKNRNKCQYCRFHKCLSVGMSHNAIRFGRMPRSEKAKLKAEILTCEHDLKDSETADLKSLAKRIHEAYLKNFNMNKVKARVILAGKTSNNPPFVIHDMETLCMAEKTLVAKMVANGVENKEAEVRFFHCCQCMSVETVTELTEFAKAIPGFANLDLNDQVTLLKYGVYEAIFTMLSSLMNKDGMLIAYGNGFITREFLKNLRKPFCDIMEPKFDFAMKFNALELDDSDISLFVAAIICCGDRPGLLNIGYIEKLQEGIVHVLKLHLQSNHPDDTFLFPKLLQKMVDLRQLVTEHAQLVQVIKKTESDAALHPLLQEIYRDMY

[2] = 21-day diet study, bodyweights of SD rats; format: in vivo, rat; details: 300 ppm in diet, 21 days
Procedure: This experiment investigated the effect of compounds of different % linearity on body weight over a longer study period.
The diet study consisted of one control group of 4 male animals and 4 test groups of 4 male animals (as specified earlier in this Example). Animals received powdered RM1 diet alone, or RM1 diet containing 300 ppm XEN1001 or XEN1002, ad libitum for the duration of the study. Bodyweights were measured daily for 21 days.

[3] = Plasma levels of PFOA after 11 days oral dosing in SD rats (LC/MS/MS); format: in vivo, rat; details: 25 mg/kg oral daily for 11 days, 24 hours after final administration
Procedure: The study consisted of one control group of 8 male CD Sprague Dawley rats (8-10-weeks old; obtained from Harlan, UK) and 4 test groups that contained 4 rats. Animals received powdered RM1 diet ad libitum for the duration of the study. […] All chemicals were dissolved in Mazola corn oil (at 2.5 mg/ml) and test compounds were administered at 10 ml/kg bodyweight. Control animal received Mazola corn oil only. All animals were sacrificed after 11 days. Animals were killed by exposure to rising concentrations of CO2, and blood was harvested into lithium/heparin tubes for plasma.
Rat plasma samples were denatured by adding acetonitrile, and the amount of perfluorooctanoic acid (PFOA) present was determined by LC/MS/MS.

[4] = test system: PC3 cells (human prostate cancer-derived); assay: SRB growth inhibition assay, PC3 cells; format: cell-based; details: Homo sapiens, PC-3, 48 hours exposure
Procedure: (§1) The effect of perfluorinated compounds on the inhibition of tumour cell growth was assessed iii vitro using three human tumour-derived cell lines. Cancer cell lines were tested using the sulphorhodamine B (SRB) assay (which measures cellular protein and is directly related to cell number), which is utilised by the […] to screen anti-cancer agents.
(§2) HT-29 cells (human colon tumour-derived), MCF7 cells (human breast cancer-derived) and PC3 cells (human prostate cancer-derived) were harvested and diluted (to 5×10^4 cells per ml, 1×10^5 cells per ml and 7.5×10^4 cells per ml respectively) in RPMI 1640 medium containing 5% FBS, 2 mM glutamine and. 50 μg/ml gentamicin. 100 μl of cell suspension per well was added to 96 well plates and allowed to attach overnight. Cells were exposed to test compounds dissolved in DMSO in 100 μl of medium to give final drug concentrations of 0, 0.3, 1, 3, 10, 30, 100, 300, 1000 and 3000 μM (and DMSO at 0.25%). (n=6 for each drug concentration). After 48 hours, cells were fixed in 10% trichloroacetic acid (TCA) at 4° C. for 1-2 hours then washed using water and subsequently air-dried. 100 μl SRB solution (0.4%) in 1% Acetic Acid was added to each well, and plates were incubated at room temperature for 10 minutes. Unbound dye was removed by washing with 1% acetic acid. Plates were air-dried and bound stain was solubilised in 10 mM Tris base and the absorbance read at 520 nm.

[5] = test system: HT-29 cells (human colon tumour-derived); assay: SRB growth inhibition assay, HT-29 cells; format: cell-based; details: Homo sapiens, HT-29, 48 h, 48 hours exposure
Procedure: as §1, §2

[6] = target: T2, PPAR gamma (Homo sapiens, UniProt P37231); assay: PPAR gamma transactivation assay in COS-1 cells; format: cell-based; details: at 1 mM, mean±SD n=3
T2 construct: 25 ng of vector DNA carrying PPAR alpha, delta or gamma; expressed in transfected cells; host or cells: COS-1 (African green monkey kidney cells)
T2 sequence (P37231 1-505): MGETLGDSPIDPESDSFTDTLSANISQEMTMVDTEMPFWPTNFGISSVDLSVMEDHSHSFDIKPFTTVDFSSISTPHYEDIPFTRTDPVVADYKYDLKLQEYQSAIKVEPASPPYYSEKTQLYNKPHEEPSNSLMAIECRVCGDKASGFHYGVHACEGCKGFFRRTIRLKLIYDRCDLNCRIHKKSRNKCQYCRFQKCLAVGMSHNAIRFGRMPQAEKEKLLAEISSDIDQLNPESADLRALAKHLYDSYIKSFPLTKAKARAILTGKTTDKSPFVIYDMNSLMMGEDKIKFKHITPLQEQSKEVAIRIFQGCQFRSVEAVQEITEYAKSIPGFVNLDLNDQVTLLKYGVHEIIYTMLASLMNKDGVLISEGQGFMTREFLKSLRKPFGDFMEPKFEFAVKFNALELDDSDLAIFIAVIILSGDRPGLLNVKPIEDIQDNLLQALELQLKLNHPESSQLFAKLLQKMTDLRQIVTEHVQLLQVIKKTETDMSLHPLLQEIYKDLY

[7] = target: T3, PPAR delta (Homo sapiens, UniProt Q03181); assay: PPAR delta transactivation assay in COS-1 cells; format: cell-based; design: Fold activation of PPAR delta: dose or concentration left out as unconfirmed; details: mean±SD n=3
T3 construct: 25 ng of vector DNA carrying PPAR alpha, delta or gamma; expressed in transfected cells; host or cells: COS-1 (African green monkey kidney cells)
T3 sequence (Q03181 1-441): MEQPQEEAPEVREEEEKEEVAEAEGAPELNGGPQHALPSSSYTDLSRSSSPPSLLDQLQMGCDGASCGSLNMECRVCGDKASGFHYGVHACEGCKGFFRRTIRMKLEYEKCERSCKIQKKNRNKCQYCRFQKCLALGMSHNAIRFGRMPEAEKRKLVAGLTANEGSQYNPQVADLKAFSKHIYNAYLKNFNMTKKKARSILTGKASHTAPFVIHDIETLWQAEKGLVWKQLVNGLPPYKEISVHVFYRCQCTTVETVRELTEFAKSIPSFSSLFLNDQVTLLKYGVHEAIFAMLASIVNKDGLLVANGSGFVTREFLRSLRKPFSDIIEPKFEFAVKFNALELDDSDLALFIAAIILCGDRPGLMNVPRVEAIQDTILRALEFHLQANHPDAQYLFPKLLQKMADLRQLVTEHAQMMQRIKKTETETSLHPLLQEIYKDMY

[8] = 7-day oral gavage study, metabolic parameters, body weight and food consumption in CR SD rats; format: in vivo, rat; details: for Cholesterol (plasma) / Glucose (plasma) / Insulin (plasma) / Triglycerides (plasma): n=5
Procedure: Two groups (n=5) of CR SD rats (approximately 300 g) were treated with 2 dose levels of perfluorinated compounds (15 and 25 mg/kg/day body weight). Animals were administered test substances, dissolved in corn oil, by oral gavage, daily for 7 days. One group of 20 CR SD rays was also treated with vehicle (corn oil) alone. Body weight and food consumption were monitored daily.
Twenty-four hours after the last dose the animals were killed by an increasing concentration of carbon dioxide. Blood was collected by cardiac puncture and plasma was prepared and stored at −70° C. until analysed.
Plasma was analysed for triglycerides, cholesterol, and glucose, using kits purchased from Sigma. Concentrations of plasma insulin were determined using a commercially available enzyme-immunoassay-based kit from Amersham Biosciences. All assays were carried out as specified by the manufacturer.

[9] = test system: three human tumour-derived cell lines (HT-29, MCF7, PC3); assay: SRB growth inhibition, summary over the three human tumour cell lines; format: cell-based; details: Homo sapiens; over HT-29, MCF7 and PC3
Procedure: as §1, §2

[10] = test system: MCF7 cells (human breast cancer-derived); assay: SRB growth inhibition assay, MCF7 cells; format: cell-based; details: Homo sapiens, MCF7, 48 h, 48 hours exposure
Procedure: as §1, §2

[11] = 15 mg/kg/day oral gavage 7 days
[12] = 25 mg/kg/day oral gavage 7 days

SMILES: Cc1cccc(Nc2cc(Cl)nc(SCC(=O)O)n2)c1C [Wyeth14643]
- Fold activation of PPAR alpha, positive control [1]: 8.88 ± 1.94 fold

SMILES: N.O=C(O)C(F)(F)C(F)(F)C(F)(F)C(F)(F)C(F)(F)C(F)(F)C(F)(F)F [XEN1001, Ammoniumperfluorooctanoate]
- Lost bodyweight up to day [2]: 7 days
- Plasma concentration of PFOA (free acid) [3]: equimolar concentrations of PFOA

SMILES: N.O=C(O)C(F)(F)C(F)(F)C(F)(F)C(F)(F)C(F)(F)C(F)(F)C(F)(F)F [XEN1002, Ammoniumperfluorooctanoate]
- Lost bodyweight up to day [2]: 10 days
- Weight loss compared with XEN1001 [2]: more pronounced
- Plasma concentration of PFOA (free acid) [3]: equimolar concentrations of PFOA

SMILES: COC(=O)C(F)(F)C(F)(F)C(F)(F)C(F)(F)C(F)(F)C(F)(F)C(F)(F)F [MPOA, Methyl perfluorooctanoate]
- IC50 [4]: > 3000 µM
- IC50 [5]: > 3000 µM
- Fold activation of PPAR gamma [6]: 2.92 ± 0.12 fold
- Fold activation of PPAR delta [7]: 1.51 ± 0.31 fold
- Plasma insulin, % of control values ([8]; 15 mg/kg): 2.6%
- Weight loss ([8]; 15 mg/kg, 7 days): 8.2%
- Cholesterol (plasma) [8, 11]: 1.17 ± 0.31 mmol/L
- Glucose (plasma) [8, 11]: 11.48 ± 1.27 mmol/L
- Insulin (plasma) [8, 11]: 4.87 ± 2.611 ng/mL
- Triglycerides (plasma) [8, 11]: 0.28 ± 0.08 mmol/L
- Plasma cholesterol, % of control values ([8]; 25 mg/kg): 36.7%
- Plasma insulin, % of control values ([8]; 25 mg/kg): 15.6%
- Plasma triglycerides, % of control values ([8]; 25 mg/kg): 33.7%
- Bodyweight lost ([8]; 25 mg/kg, after day 6, terminated early): 8%
- Cholesterol (plasma) [8, 12]: 0.73 ± 0.23 mmol/L
- Glucose (plasma) [8, 12]: 12.99 ± 2.07 mmol/L
- Insulin (plasma) [8, 12]: 28.74 ± 17.22 ng/mL
- Triglycerides (plasma) [8, 12]: 0.6 ± 0.89 mmol/L
- Bodyweight change ([8]; 15 and 25 mg/kg/day, continued till end of treatment): lost bodyweight after day 3
- Food consumption ([8]; 15 and 25 mg/kg/day, versus control): dose-related, decreases in food consumption
- Plasma glucose, % of control values ([8]; dose not stated): 78.6%
- IC50 [9]: ~3000 µM
- IC50 [10]: > 2790 µM
- Plasma concentration of PFOA (free acid) [3]: equimolar concentrations of PFOA
